A short description of data set [1]: Photophysical measurements of photosensitizers (λmax, ε, φ f). Type of data set: physicochemical. Details: λmax: unit not given here. As to conditions: for ε: at λmax; for λmax: band I absorption maximum.
The test system of data set [2] is Chinese hamster lung fibroblasts (V-79). The experiment in a line: DC(50)(light): colony-formation phototoxicity after laser irradiation. Type of data set: cell-based. Conditions: V-79 cells; sensitizer incubation 16-24 hours; 12.5 mW/cm^2, total light dose 1.25 J/cm^2; concentration for lethal damage to 50% of cells. The procedure: (§1) For the Biological Evaluation, Chinese hamster lung fibroblasts (V-79) obtained from the American Tissue Culture Collection were grown in D-MEM supplemented with 10% fetal calf serum at 37° C., 5% CO2, and 95% humidity. These cells were used to evaluate the sensitizers for dark and light toxicity, and cellular uptake. Medium was replaced with 5% fetal calf serum supplemented medium during sensitizer incubations.
In the first phase, the combination of intracellular and extracellular concentration of photosensitizer required for lethal damage to 50% of the cells in culture (DC(50)) on light exposure was determined by plating cells at a density of 100 cells/cm^2 and incubating for 1-3 hours to allow attachment of the cells. Cells were incubated with various concentrations of sensitizer ([C]=0.01-1.0 μM) delivered in non-toxic concentrations of DMSO/5% dextrose solution or in some cases in egg yolk phosphatidase (EYP) for 16-24 hours. The cells were then irradiated with laser light using a tunable Lexel argon pumped dye laser at the band I absorption of the photosensitizer. Total power density was adjusted to 12.5 mW/cm^2 and a total light dose of 1.25 J/cm^2 was applied. After treatment, cells were washed with HBSS, refed with 10% FBS supplemented DMEM with phenol red and incubated for 3-5 days to allow colony formation. Cells were fixed in methanol, stained with Giemsa, and colonies were counted. Plating efficiency was determined using a control colony and the mean percent survival fraction plotted against the sensitizer concentration and the DC50 established (Table 5).

The next data set concerns V-79 cells. The experiment in a line: Cellular uptake of photosensitizer. As to conditions: 10 μM photosensitizer in EYP. Type of data set: in vitro ADME, Chinese hamster. The procedure: as §1
Several photosensitizers were screened by a standard cellular uptake protocol. A 10 μM stock solution of photosensitizer in EYP was prepared by dilution of the photosensitizer stock (1 mM) using 5% dextrose solution. […] Following incubation the cells were washed with PBS (1 mL) three times, then washed with HBSS (1 mL) and detached using 100 μL of trypsin. Individual wells containing cells were lysed by three freeze thaws.
Spiking experiments were performed to confirm that the sensitizer could be adequately recovered using standard procedures. The sensitizer was then extracted from the cell debris with DMSO, centrifuged and the supernatant examined for fluorescence. Sensitizer concentration was determined by comparison to a standard curve. Results are expressed in ug/ug protein. Untreated monolayers are used to determine cell count. Treated cells of each time point were used to determine the protein concentration using the BCA assay. Results shown are the mean of the three experiments for each timepoint.

The next data set concerns BA mammary carcinoma. Kind of data set: In vivo assay of photosensitizers on tumors (PDT tumor cure). Details: species or system C3H/HeJ mice. As to conditions: treatment 24 post injection, light dose 200 J/cm^2, n = 10. The procedure: Female C3H/HeJ mice (8-9 weeks old) were subjected to trochar implantation of BA mammary carcinoma on the hind leg of the animals. Animals having tumors ca 5 mm in diameter were entered into the in vivo screen. For each new photosensitizer, a group of at least three mice were used to ascertain a drug dose that caused a response as described in table 3 when treated with the appropriate wavelength of light. Generally in this series, animals were injected with 1 μ mole of sensitizer/Kg of body weight, formulated in egg yolk phosphatidate (EYP), via the tail vein. At a defined time period later the animals were irradiated with light from a laser source tuned to the wavelength of activation of the sensitizer. The power density of the laser was set at 75 mW/cm^2 with a total light dose of 200 J/cm^2.

One may read the IC50 as the concentration at which inhibition is half-maximal.

As to `CCC1=C(CC)c2cc3[nH]c(c(CC)c3CC)c3cc(S(=O)(=O)NCCCO)cc4c3nc(cc3[nH]c(cc1n2)c(CC)c3CC)C4(CC)CC` [Compound 2, OEBCSO2NH(CH2)3OH], in data set [1], the φ f is listed as 0.230, the ε is recorded as 34,000 M^−1 cm^−1 and the λmax is 665. Also, the IC50 in data set [2] fell in the range of 0.5 to 1 µM. Also, in the data set with V-79 cells, the “Cellular uptake (24 hrs)” value is recorded as 0.129 ρmole/μg protein. Further, the “% Cure (30 days)” value in the data set on BA mammary carcinoma (drug dose 2.5 μm/Kg via tail vein in EYP) was 80%.

Regarding tin octaethylbenzochlorin [Compound 6], in data set [1], the φ f worked out at 0.044, the ε was 54,000 M^−1 cm^−1 and the λmax was 691. Moreover, the IC50 in data set [2] lay in the range of 0.08 to 0.16 µM. In addition, the “Cellular uptake (24 hrs)” value with V-79 cells is on record as 0.501 ρmole/μg protein. In the data set on BA mammary carcinoma (drug dose 0.75 μm/Kg via tail vein in EYP), the “% Cure (30 days)” value was determined as 80%.

In the case of `CCC1=C(CC)C2=NC1=Cc1c(CC)c(CC)c3[n]1[In]([Cl])[n]1c(c(CC)c(CC)c1=c1cccc4c1=NC(=C3)C4(CC)CC)=C2` [Compound 9, In Octaethylbenzochlorin], in data set [1], the φ f was 0.028, the ε is given as 53,000 M^−1 cm^−1 and the λmax is 691. For the same molecule, the IC50 in data set [2] was 0.1 µM. Also, the “Cellular uptake (24 hrs)” value in the data set on V-79 cells is on record as 0.336 ρmole/μg protein. Also, in the data set with BA mammary carcinoma (drug dose 0.1 μm/Kg via tail vein in EYP), the “% Cure (30 days)” value is listed as 70%.

The values above are taken from patent US6444194B1, “Indium photosensitizers for PDT” (Miravant Pharmaceuticals, Inc., priority 1997, dated 2002).
